Tested on: not listed separately
Assay: Determination of compound Cmax and AUC after oral gavage (plasma LC-MS/MS)
Assay type: in vivo, Sprague-Dawley rats
Details: Sprague-Dawley, rat, plasma, po, Structure (I) examples, Table 15, actual oral dose 3-15 mg/kg, plasma 0.5-4 h
Protocol: (§1) Sprague-Dawley rats were orally gavaged with test article at a nominal dose of 2.5 or 10 mg/kg and blood was collected at 0.5, 1, 2 and 4 h. Blood samples were processed to plasma using K2EDTA as an anticoaglulant. Plasma samples were treated with acetonitrile containing an internal standard, precipitated proteins removed by centrifugation. Supernatants were analyzed by LC-MS/MS and compound concentrations were determined by interpolation from a standard curve prepared in plasma. All compounds were orally dosed at the dosage shown, and pharmacokinetic parameters determined.
as §1, with “interpolated” for “interpolation”
as §1, with “interpolated” for “interpolation”

Row | AUC | Cmax | Structure (SMILES)
1 | > 50 ng·h/mL | < 50 ng/mL | O=C(O)CCSCc1cccc(C(=O)Nc2ccc(N3CCCCC3)cc2-c2cc(C(=O)NCc3cccc(C(F)(F)F)c3)ccn2)c1 [Example 1.1, 3-(3-((2-(4-((3-(Trifluoromethyl)benzyl)carbamoyl)pyridin-2-yl)-4-(piperidin-1-yl)phenyl)carbamoyl)benzylthio)propanoic acid]
2 | < 10 ng·h/mL | < 10 ng/mL | COCCOCCOCCOCCOCCOCCOCCOCCNC(=O)[C@@H]1CCCN1CCN(C)C(=O)c1cccc(C(=O)Nc2ccc(N3CCCCC3)cc2-c2cc(C(=O)N[C@H]3CCCc4ccccc43)ccn2)c1 [Example 195, N^1-(2-((S)-2-(2,5,8,11,14,17,20,23-octaoxapentacosan-25-ylcarbamoyl)pyrrolidin-1-yl)ethyl)-N-methyl-N^3-(4-(piperidin-1-v)-2-(4-(((S)-1,2,3,4-tetrahydronaphthalen-1-yl)carbamoyl)pyridin-2-yl)phenyl)isophthalamide]
3 | < 30 ng·h/mL | < 30 ng/mL | CN(CCN1CCOCC1)C(=O)c1cccc(C(=O)Nc2ccc(OC3CCC3)cc2-c2cc(C(=O)NCc3cccc(C(F)(F)F)c3)ccn2)c1 [Example 26]

Same assay, conditions: Sprague-Dawley, rat, plasma, po, Structure (II) examples, Table 6, actual oral dose 7.6-11 mg/kg

Row | AUC | Cmax | Structure (SMILES)
4 | 9.8 ng·h/mL | 5 ng/mL | CN(CCN1CCOCC1)C(=O)c1cccc(C(=O)Nc2ccc(N3CCCCC3)cc2C(=O)Nc2ccn(-c3cccc(C(F)(F)F)c3)n2)c1 [Example 11]
5 |  | 3 ng/mL | O=C(O)CCOCCOCCOCCNC(=O)Cc1cccc(SCc2cccc(C(=O)Nc3ccc(N4CCCCC4)cc3C(=O)Nc3ccn(-c4cccc(C(F)(F)F)c4)n3)c2)c1 [Example 26]
6 | 11 ng·h/mL | 10 ng/mL | CN(CCOCCOCCOCCC(=O)O)C(=O)c1cccc(C(=O)Nc2ccc(N3CCCCC3)cc2C(=O)Nc2ccn(-c3cccc(C(F)(F)F)c3)n2)c1 [Example 15]
7 | 467 ng·h/mL | 393 ng/mL | O=C(O)CCSCc1cccc(C(=O)Nc2ccc(N3CCCCC3)cc2C(=O)Nc2ccn(-c3cccc(C(F)(F)F)c3)n2)c1 [Example 7]

Same assay, conditions: Sprague-Dawley, rat, plasma, po, Structure (III) examples, Table 6, actual oral dose 8.9-10 mg/kg

Row | AUC | Cmax | Structure (SMILES)
8 | 140 ng·h/mL | 70 ng/mL | CN(CCN1CCOCC1)C(=O)c1cccc(C(=O)Nc2ccc(N3CCCCC3)cc2C(=O)Nc2cnc(-c3ccccc3)nc2)c1 [Example 11]

Biological target: T1, rat NaP2b (SLC34A2) (Rattus norvegicus, UniProt Q9JJ09)
T1 construct: host or cells: HEK293
T1 sequence (Q9JJ09 1-695): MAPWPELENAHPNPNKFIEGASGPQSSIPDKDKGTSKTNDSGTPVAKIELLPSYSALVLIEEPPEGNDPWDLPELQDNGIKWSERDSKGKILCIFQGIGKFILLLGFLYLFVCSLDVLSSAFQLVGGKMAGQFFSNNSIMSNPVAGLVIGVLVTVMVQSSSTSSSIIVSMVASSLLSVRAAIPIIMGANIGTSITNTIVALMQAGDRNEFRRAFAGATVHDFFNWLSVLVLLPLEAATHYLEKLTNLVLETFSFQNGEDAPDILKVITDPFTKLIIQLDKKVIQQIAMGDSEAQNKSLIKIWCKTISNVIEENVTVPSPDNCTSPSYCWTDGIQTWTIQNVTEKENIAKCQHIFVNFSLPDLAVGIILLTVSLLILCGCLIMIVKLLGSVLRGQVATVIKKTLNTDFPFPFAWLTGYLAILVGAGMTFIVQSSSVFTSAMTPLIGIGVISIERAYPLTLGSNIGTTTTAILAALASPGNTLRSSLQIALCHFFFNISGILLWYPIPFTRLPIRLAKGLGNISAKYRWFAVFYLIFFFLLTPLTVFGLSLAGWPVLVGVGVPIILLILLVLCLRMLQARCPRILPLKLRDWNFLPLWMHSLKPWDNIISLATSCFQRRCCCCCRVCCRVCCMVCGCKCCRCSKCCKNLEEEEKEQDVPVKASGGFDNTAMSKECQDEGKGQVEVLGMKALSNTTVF
Assay: Inhibition of NaP2b-mediated Pi (33P) uptake in transfected HEK293 cells, rat NaP2b
Assay type: cell-based
Details: 33P Pi uptake, 0.1 mM phosphate, value given as pIC50 range
Outline: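 HEK293 cells were transiently transfected with NaP2b cDNA using Lipofectamine and grown near confluence. Compounds were tested at twelve concentrations from 0.1 nM to 30 uM in duplicate, and 33P-phosphate uptake was counted by scintillation after lysis. Results are expressed as pIC50.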

Row | Structure (SMILES) | IC50
9 | COCCOCCOCCOCCOCCOCCOCCOCCNC(=O)[C@@H]1CCCN1CCN(C)C(=O)c1cccc(C(=O)Nc2ccc(N3CCCCC3)cc2-c2cc(C(=O)N[C@H]3CCCc4ccccc43)ccn2)c1 [Example 195, N^1-(2-((S)-2-(2,5,8,11,14,17,20,23-octaoxapentacosan-25-ylcarbamoyl)pyrrolidin-1-yl)ethyl)-N-methyl-N^3-(4-(piperidin-1-v)-2-(4-(((S)-1,2,3,4-tetrahydronaphthalen-1-yl)carbamoyl)pyridin-2-yl)phenyl)isophthalamide] | 1 to 7.94 µM
10 | CCN(CC)c1ccc(NC(=O)c2cccc(CCCOCCOCCOCCOCCN)c2)c(-c2cc(C(=O)NCc3cccc(C(F)(F)F)c3)ccn2)c1 [Example 270, 2-(2-(3-(1-amino-3,6,9,12-tetraoxapentadecan-15-yl)benzamido)-5-(diethylamino)phenyl)-N-(3-(trifluoromethyl)benzyl)isonicotinamide] | 1 to 7.94 µM
11 | CN(CCN1CCOCC1)C(=O)c1cccc(C(=O)Nc2ccc(N3CCSCC3)cc2-c2cc(C(=O)NCc3cccc(C(F)(F)F)c3)ccn2)c1 [Example 118] | 1 to 7.94 µM
12 | CN(CCO)CCN(C)C(=O)c1cccc(C(=O)Nc2ccc(N3CCCCC3)cc2-c2cc(C(=O)NCc3cccc(C(F)(F)F)c3)ccn2)c1 [Example 4.21, N1-(2-((2-Hydroxyethyl)(methyl)amino)ethyl)-N1-methyl-N3-(4-(piperidin-1-yl)-2-(4-((3-(trifluoromethyl)benzyl)carbamoyl)pyridin-2-yl)phenyl)isophthalamide] | 1 to 7.94 µM
13 | O=C(O)CCSCc1cccc(C(=O)Nc2ccc(N3CCCCC3)cc2-c2cc(C(=O)NC3CCc4ccccc43)ccn2)c1 (centres unmarked) [Example 1.34] | 1 to 7.94 µM
14 | CN(CCN1CCOCC1)C(=O)c1cccc(C(=O)Nc2ccc(N3CCC(C)(C)CC3)cc2-c2cc(C(=O)NCc3cccc(C(F)(F)F)c3)ccn2)c1 [Example 108] | 10 to 31.6 µM
15 | COCCN(C)CCN(C)C(=O)c1cccc(C(=O)Nc2ccc(N3CCCCC3)cc2-c2cc(C(=O)NCc3cccc(C(F)(F)F)c3)ccn2)c1 [Example 4.20.2, N1-(2-((2-Methoxyethyl)(methyl)amino)ethyl)-N1-methyl-N3-(4-(piperidin-1-yl)-2-(4-((3-(trifluoromethyl)benzyl)carbamoyl)pyridin-2-yl)phenyl)isophthalamide] | 1 to 7.94 µM
16 | O=C(O)CCSCc1cccc(C(=O)Nc2ccc(N3CCCCC3)cc2-c2cc(CNCc3cccc(C(F)(F)F)c3)ccn2)c1 [Example 7] | 10 to 31.6 µM
17 | COCCNC(=O)N1CCN(CCN(C)Cc2cccc(C(=O)Nc3ccc(N4CCCCC4)cc3-c3cc(C(=O)NCc4cccc(C(F)(F)F)c4)ccn3)n2)CC1 [Example 63, N-(2-Methoxyethyl)-4-(2-(methyl((6-((4-(piperidin-1-yl)-2-(4-((3-(trifluoromethyl)benzyl)carbamoyl)pyridin-2-yl)phenyl)carbamoyl)pyridin-2-yl)methyl)amino)ethyl)piperazine-1-carboxamide] | 1 to 7.94 µM
18 | COCCNC(=O)CCN(C)C(=O)c1cccc(C(=O)Nc2ccc(N3CCCCC3)cc2-c2cc(C(=O)NCc3cccc(C(F)(F)F)c3)ccn2)c1 [Example 4.2, N1-(2-(4-((3-(Trifluoromethyl)benzyl)carbamoyl)pyridin-2-yl)-4-(piperidin-1-yl)phenyl)-N3-(3-(2-methoxyethylamino)-3-oxopropyl)-N3-methylisophthalamide] | 1 to 7.94 µM
19 | O=C(O)CCSCc1cccc(C(=O)Nc2ccc(N3CCCCC3)cc2-c2cc(C(=O)NCc3ccc4c(c3)CCO4)ccn2)c1 [Example 1.24] | 1 to 7.94 µM
20 | O=C(O)CCOCCOCCOCCOCCCc1cccc(C(=O)Nc2ccc(OC3CCCC3)cc2-c2cc(C(=O)N[C@H]3CCCc4ccccc43)ccn2)c1 [Example 347, (S)-16-(3-(4-(cyclopentyloxy)-2-(4-(1,2,3,4-tetrahydronaphthalen-1-ylcarbamoyl)pyridin-2-yl)phenylcarbamoyl)phenyl)-4,7,10,13-tetraoxahexadecan-1-oic acid] | < 1 µM

Further lines, results first:

Row | IC50 | Structure (SMILES)
21 | 1 to 7.94 µM | O=C(O)CCOCCOCCOCCOCCOCCOCCOCCOCCSCc1cccc(C(=O)Nc2ccc(N3CCCCC3)cc2-c2cc(C(=O)NCc3cccc(C(F)(F)F)c3)ccn2)c1 [Example 8.22]
22 | 10 to 31.6 µM | O=C(O)CCSCc1cccc(C(=O)Nc2ccc(N3CCCCC3)cc2-c2cc(C(=O)c3cccc(C(F)(F)F)c3)ccn2)c1 [Example 5.2, 3-((3-((4-(piperidin-1-yl)-2-(4-(3-(trifluoromethyl)benzoyl)pyridin-2-yl)phenyl)carbamoyl)benzyl)thio)propanoic acid]
23 | 10 to 31.6 µM | COCCNC(=O)C1CCCN(Cc2cccc(C(=O)Nc3ccc(N4CCCCC4)cc3-c3cc(C(=O)NCc4cccc(C(F)(F)F)c4)ccn3)c2)C1 (stereo in doubt) [Example 12.2, (R)-2-(2-(3-((3-((2-Methoxyethyl)carbamoyl)piperidin-1-yl)methyl)benzamido)-5-(piperidin-1-yl)phenyl)-N-(3-(trifluoromethyl)benzyl)isonicotinamide]
24 | 10 to 31.6 µM | CCN(CC)CCN(C)C(=O)c1cccc(SCc2cccc(C(=O)Nc3ccc(N4CCCCC4)cc3-c3cc(C(=O)NCc4cccc(C(F)(F)F)c4)ccn3)c2)c1 [Example 10.8]
25 | 10 to 31.6 µM | O=C(NCc1cccc(C(F)(F)F)c1)c1ccnc(-c2cc(N3CCCCC3)ccc2NC(=O)c2cccc(CSCCS(=O)(=O)O)c2)c1 [Example 8.13]
26 | 1 to 7.94 µM | O=C(O)CCCc1cccc(SCc2cccc(C(=O)Nc3ccc(N4CCCCC4)cc3-c3cc(C(=O)NCc4cccc(C(F)(F)F)c4)ccn3)c2)c1 [Example 8.19]
27 | 10 to 31.6 µM | CC(=O)NC(C(=O)O)C(C)(C)SCc1cccc(C(=O)Nc2ccc(N3CCCCC3)cc2-c2cc(C(=O)NCc3cccc(C(F)(F)F)c3)ccn2)c1 (centres unmarked) [Example 8.11]
28 | 1 to 7.94 µM | O=C(O)CCSCc1cccc(C(=O)Nc2ccc(N3CCCCC3)cc2-c2cc(C(=O)CCc3ccccc3)ccn2)c1 [Example 5.1, 3-((3-((2-(4-(3-Phenylpropanoyl)pyridin-2-yl)-4-(piperidin-1-yl)phenyl)carbamoyl)benzyl)thio)propanoic acid]

Source: patent publication US20140023611A1 (priority 2010, published 2014)
